Test results: patent US20140024548A1, “DRUG SELECTION FOR MALIGNANT CANCER THERAPY USING ANTIBODY-BASED ARRAYS” (NESTEC S.A., priority 2010, published 2014)
Each block holds one compound with its values, some of them ahead of it.

Experiments:
[1] = early Phase I evaluation; cited from earlier work
[2] = test system: human xenograft models; details: dosed orally; cited from earlier work
[3] = test system: HER2; experiment: CEER detection of activated HER2 in HCC827 cells treated with HGF; format: cell-based; details: HGF stimulation, judged by increased EC50
Protocol: (§1) In one particular embodiment, cells from a NSCLC cell line (e.g., HCC827 cells or other gefitinib sensitive lung adenocarcinoma cells with EGFR-activating mutations; American Type Culture Collection, Manassas, Va.) were treated with different concentrations of ligand or signaling molecule (e.g., the ligand for the cMET receptor, HGF). The levels of expression and activation of proteins associated with cancer were measured in the treated cells with high sensitivity using CEER arrays. By varying the amount of ligand exposed to the cancer cells, the expression profiles of the analyzed proteins were correlated to the amount of ligand used to stimulate the cells. Dose response curves were used to calculate EC50 values which can be used to interpret the inhibition and activation states of the analyzed proteins.
(§2) FIG. 10 illustrates the difference in protein expression in HCC827 cells following HGF stimulation. […] FIG. 10E illustrates that HGF and cMET binding interferes with HER3 activation, and HER1 and HER2 to a lesser extent (see also, FIGS. 10C and 10D).

[4] = test system: HER3; experiment: CEER detection of activated HER3 in HCC827 cells treated with HGF; format: cell-based; details: HGF stimulation, judged by increased EC50
Protocol: as §1, §2

[5] = target: T1, cMET (Homo sapiens, UniProt P08581); experiment: CEER detection of activated cMET in HCC827 cells treated with HGF; format: cell-based; details: HGF stimulation, FIG. 10B
T1 construct: host or cells: HCC827
T1 sequence (P08581 25-1390): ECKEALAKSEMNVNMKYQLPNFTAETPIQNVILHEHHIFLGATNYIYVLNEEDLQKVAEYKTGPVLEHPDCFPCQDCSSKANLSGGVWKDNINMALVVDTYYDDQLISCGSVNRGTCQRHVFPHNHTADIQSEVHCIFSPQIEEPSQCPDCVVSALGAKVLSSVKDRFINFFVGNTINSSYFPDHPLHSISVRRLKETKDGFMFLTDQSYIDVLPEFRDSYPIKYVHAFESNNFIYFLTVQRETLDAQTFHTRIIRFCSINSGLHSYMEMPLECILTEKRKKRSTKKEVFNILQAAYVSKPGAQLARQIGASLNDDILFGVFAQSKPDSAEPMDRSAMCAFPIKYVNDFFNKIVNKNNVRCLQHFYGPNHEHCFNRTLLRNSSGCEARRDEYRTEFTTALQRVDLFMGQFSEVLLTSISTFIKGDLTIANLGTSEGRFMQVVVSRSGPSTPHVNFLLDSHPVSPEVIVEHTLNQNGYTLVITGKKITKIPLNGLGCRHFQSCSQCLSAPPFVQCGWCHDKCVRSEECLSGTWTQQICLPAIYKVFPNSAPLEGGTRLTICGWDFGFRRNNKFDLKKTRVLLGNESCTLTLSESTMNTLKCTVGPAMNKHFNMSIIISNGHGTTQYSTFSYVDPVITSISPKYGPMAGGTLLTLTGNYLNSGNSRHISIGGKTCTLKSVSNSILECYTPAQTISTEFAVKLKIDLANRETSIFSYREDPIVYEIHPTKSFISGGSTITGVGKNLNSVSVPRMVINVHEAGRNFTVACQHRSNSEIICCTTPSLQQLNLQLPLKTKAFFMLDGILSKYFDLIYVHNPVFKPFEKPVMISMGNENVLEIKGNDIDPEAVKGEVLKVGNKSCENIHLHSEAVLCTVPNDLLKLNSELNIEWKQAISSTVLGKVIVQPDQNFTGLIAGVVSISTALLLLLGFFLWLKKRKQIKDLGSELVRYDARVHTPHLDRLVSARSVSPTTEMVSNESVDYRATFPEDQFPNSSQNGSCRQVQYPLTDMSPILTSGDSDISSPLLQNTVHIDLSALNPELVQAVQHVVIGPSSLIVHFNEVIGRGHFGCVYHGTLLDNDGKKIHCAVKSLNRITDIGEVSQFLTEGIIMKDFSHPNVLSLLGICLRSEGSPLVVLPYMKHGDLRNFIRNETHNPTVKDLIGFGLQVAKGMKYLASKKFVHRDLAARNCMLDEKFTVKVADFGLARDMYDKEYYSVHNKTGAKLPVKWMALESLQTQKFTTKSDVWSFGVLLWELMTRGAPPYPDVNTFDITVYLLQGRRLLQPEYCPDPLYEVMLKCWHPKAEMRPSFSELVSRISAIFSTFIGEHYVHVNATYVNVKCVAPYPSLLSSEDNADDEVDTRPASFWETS
Protocol: as §1, §2

[6] = test system: HER1; experiment: CEER detection of activated HER1 in HCC827 cells treated with HGF; format: cell-based; details: HGF stimulation, judged by increased EC50
Protocol: as §1, §2

[7] = test system: CYP450; details: cited from earlier work
[8] = in vivo; cited from earlier work

Compound: CN(C[C@@H]1COCCO1)S(=O)(=O)Nc1ccc2ccc3ncc(-c4cnn(C)c4)cc3c(=O)c2c1 [MK-2461]
tolerability [1]: well tolerated

Compound: Cn1cc(-c2ccc3nnc(Sc4ccc5ncccc5c4)n3n2)cn1 [SGX523]
antitumor activity [2]: potent antitumor activity
toxicity [2]: no overt toxicity

cMET activation [5]: activated cMET effectively
Compound: HGF: hepatocyte growth factor, the ligand for the cMET receptor
HER2 activation [3]: decreased
HER3 activation [4]: decreased
HER1 activation [6]: decreased

Compound: COc1cc2c(Oc3ccc(NC(=O)C4(C(=O)Nc5ccc(F)cc5)CC4)cc3F)ccnc2cc1OCCCN1CCOCC1 [GSK 1363089/XL880]
CYP450 substrate / inhibitor / inducer status [7]: substrate, but not an inhibitor or inducer
oral bioavailability [8]: good oral bioavailability
